Test results from paper PMC8855072, “Trypanosoma cruzi Mitochondrial Peroxiredoxin Promotes Infectivity in Macrophages and Attenuates Nifurtimox Toxicity” (Frontiers in Cellular and Infection Microbiology, 2022).

Assays:
[1] = biological target: T1, recombinant MPX (rMPX), mitochondrial peroxiredoxin (Trypanosoma cruzi, UniProt O79469); experiment: competition with peroxynitrite-dependent CBA oxidation (fluorescence); type: biochemical; conditions: mere turnover; pre-reduced MPX 5 µM, peroxynitrite flux ~3 µM/min from SIN-1, CBA 50 µM
T1 construct: His-tagged, expressed in E. coli BL21, nickel column; pre-reduced with DTT, DTT removed
T1 sequence (O79469 entry or part of it): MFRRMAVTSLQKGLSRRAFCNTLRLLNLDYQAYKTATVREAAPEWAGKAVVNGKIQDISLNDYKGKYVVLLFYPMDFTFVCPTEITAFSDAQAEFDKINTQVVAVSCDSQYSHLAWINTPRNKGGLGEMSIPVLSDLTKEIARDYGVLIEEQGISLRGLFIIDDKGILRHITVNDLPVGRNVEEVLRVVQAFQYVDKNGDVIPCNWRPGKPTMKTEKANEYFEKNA

[2] = biological target: T1, recombinant MPX (rMPX), mitochondrial peroxiredoxin; experiment: inhibition of peroxynitrite decomposition (CBA oxidation, fluorescence); SDS-PAGE of non-reducible adducts; type: biochemical; conditions: covalent; 100 µM CA, 1 h with pre-reduced MPX (5 µM), excess removed; SIN-1 as peroxynitrite source; holdase activity not inhibited

SMILES | competition with peroxynitrite-dependent CBA oxidation (fluorescence) [1] | inhibition of peroxynitrite decomposition (CBA oxidation, fluorescence); SDS-PAG [2]
O=NOO [peroxynitrite] | The decomposition of peroxynitrite by MPX reduces the oxidant generation of coumarin | –
[O-][n+]1c(CBr)c(CBr)[n+]([O-])c2ccccc21 [conoidin A] | – | CA reacts and crosslinks recombinant MPX
